Measurements from paper PMC13327620, “A Deep‐Red‐Absorbing Osmium(II) Complex as a Photosensitizer for Photodynamic Therapy Inducing Immunogenic Cell Death” (Angewandte Chemie (International Ed. in English), 2026).
Read-outs that look alike come from different tables or passages of the source.

Legend:
IFN‐γ and IL‐17A = test: Cytokine assay (ELISA) in serum after vaccination; type: in vivo, BALB/c mice; conditions: day 7, compared to Control and Cisplatin groups
From the text: Encouraged by the excellent performance of Os2 in inducing ICD both in vitro and in vivo, we decided to further evaluate the antitumor immune response following vaccination. A key feature of ICD is its ability to initiate antigen‐specific adaptive immune responses. To assess this, we measured the immune cell response in the spleens and the cytokine levels in the serum of mice 7 days after vaccination (Figures 6A and S28).
PerCp Cy5.5 (Biolegend, Catalog no.100217, cl one 17A2), anti -CD4- Kiravia 520 (Biolegend, Catalog no. 100477, clone GK1.5), anti-CD8a-BUV496 (Ther mo F i s h er […]
transcription factor staini ng, the cells were treat ed with True- Nuclear™ Transcription Factor Buffer Set (Biolegend, Catalog no. 424401) after surface staining an d re-stained with fluorescen ce-labeled anti-IFNγ-PE (Biolegend, Catalog no. 505807, clone XMG1.2), anti-FoxP3- BV421 (Biolegend, Catalog no.126419, clone MF-14) and Zombie NIR™Fixable Viability Kit( Biolegend,Catalog no.423105).
Serum samples were obt ained from the mice on day 7 after treatment. Cytokine was detected using ELISA kits according to the manufacturer ’s instructions: IFN-γ (Biolegend, Catalog no. 430807) and IL -17A ( Bi olegend, Catalog no.432507).
All the analysis data are given as mean ± SEM. […]

[1] = test system: human glioblastoma cells (U-87 MG); test: Resazurin cell viability assay, (photo)cytotoxicity, normoxia; type: cell-based; conditions: for IC50: Homo sapiens
Protocol: (100 U ml−1), streptomycin (100 U ml−1), and 1% L-glutamine. […]
All cells were incubated at 37 °C in a humidified atmosphere with 5 % CO2.
Normoxia. The in vitro viability of cells exposed to the complexes was determined using a resazurin assay. C ells were seeded in 96-well plates at densities of 4,000 cells/well for CT26, MC A205 and U-87 MG cells, and 8,000 cells/well for MRC-5 and NIH/3T3 cells. A fter 24 h of growth at 37 °C wit h 5% CO2, the medium was replaced with fresh medium containing various concentrations of the compounds . Following a 4- h incubation in the dark, the medium was refres hed , and the plates were exposed to irradiation usinga LUM OS -BIO photoreactor (At las Photonics).N on- ir rad iated plates were similarly refr eshed with medium and kept in the dark for the same duration. After a 40- h r ecov ery period, a f reshly pr epar ed resazurin solution (0.2 mg/mL) was added to each well, and the plates were left in the dark for 4 h before analysis on a B i o Te k Cytation 5 Cell Imaging Multimode Reader (Agil ent Technologies). […]

ATP release = test: Detection of extracellular ATP in CT26 cells; type: cell-based, mouse; conditions: CT26, irradiated at 740 nm
Protocol: We finally measured ATP release, another important event in ICD, using a bioluminescence detection kit (Figure 3E).
Scientific, Catalog no.15 5411) at a d ensity of 8,00 0 cells p er well and cultu red fo r 24 h at 37 °C with 5 % CO2. T he cells wer e then treated with a solution of the compounds at a concentration corresponding to the IC50 for 4 h. After refreshing the medium, cells were subjected to irradiation and incubated for an additional 12 h. Subsequently, the cells were fix ed with 4% paraformaldehyde and immunostained with Anti- Calreticulin antibody (Abcam, Catalog no. ab2907) diluted 1/1000 at 4 °C overnight. Cells were then washed three times with PBS, treated with Goat Anti- Rabbit IgG H&L (Alexa […]
temperature in the dark, washed in PBS and treat ed with 10 µg/mL Hoechst for 15 min.
After a final wash, cells were analyzed by confocal microscopy as det ailed above. […]
incubated for 24 h. Cells were then treat ed with the determined IC50 of complexes and irradiated or kept in the dark. Supernatants were collected 12 h post-t reatm ent, and the extracellular ATP content was measured with Adenosine 5′ -triphosphate (ATP) Bioluminescent Assay Kit (Sigma-Aldrich) according tomanufacturer ’s ins truction. […]
556419) and PI (BD Biosciences, Catalog no.51- 66211E). CT26- luc cells were analyzed by flow cytometry (Beckm an Coulter Life Sciences, CytoFLEX LX Flow Cytometer). […]

C=Cc1c(C)c2cc3nc(c(CC(=O)O)c4[nH]c(cc5nc(cc1[nH]2)C(C)=C5CC)c(C)c4C(=O)O)[C@@H](CCC(=O)O)[C@@H]3C [Ce6, chlorin e6]
IFN‐γ level in serum (IFN‐γ and IL‐17A): significant increase
IL‐17A level in serum (IFN‐γ and IL‐17A): significant increase
PI ([1]; 740 nm): 28
PI ([1]; 770 nm): 8
IC50 ([1]; dark, read-out: IC50 Dark): 116 ± 6.99 µM
IC50 ([1]; light or radiation study, 1 h, 740 nm, 1.12 mW/cm2, 60 min, 12.60 J/cm2, read-out: IC50 740 nm): 4.15 ± 0.06 µM
IC50 ([1]; light or radiation study, 2 h, 770 nm, 0.68 mW/cm2, 120 min, 15.30 J/cm2, read-out: IC50 770 nm): 14 ± 3.14 µM
ATP release (ATP release): significantly enhanced ATP release
